Assay results from PMC4448982, “LP-925219 maximizes urinary glucose excretion in mice by inhibiting both renal SGLT1 and SGLT2” (Pharmacology Research & Perspectives, 2015).
Like-named read-outs stand apart in the source and are kept apart here.

Columns and labels:
[1] = Pharmacokinetics in mice (intravenous and oral); type: in vivo; settings: mouse
Procedure: Adult male C57BL/6J mice (25–35 g) were maintained on chow diet, had free access to water and were conscious through the study. LP-925219 was delivered by bolus intravenous administration at 1 mg/kg or by oral gavage at a dose of 10 mg/kg; 0.1% Tween-80 served as vehicle. Following intravenous injection, serial blood samples were collected in Ethylenediaminetetraacetic acid-containing tubes through 6 h. Following oral administration, serial blood samples were collected through 24 h. The plasma fraction was immediately separated by centrifugation at 4°C, and then stored at −20°C until sample analysis. To quantify LP-925219 concentrations, plasma samples were extracted with acetonitrile-water-formic acid (80:20:0.1) containing verapamil as internal standard at a concentration of 1 μmol/L. Extracted samples were analyzed by LC/MS-MS using a Surveyor HPLC system with a TSQ triple quadrupole mass spectrometer coupled with an Electrospray ionization source (Thermo Fisher Scientific, Waltham, MA). XCalibur 2.0 SR2 software (Thermo Fisher Scientific) was used for instrument control and data calculation. A rapid LC gradient with ammonium acetate […] (pH ∼6) and acetonitrile was used. Calculations were made by normalizing the area counts of compound to the area counts of the internal standard (relative area counts).
All plasma concentration versus time data for LP-925219 were analyzed using noncompartmental analysis, either extravascular administration (for oral administration) or bolus IV administration (for intravenous administration), of Phoenix™ WinNonlin® (version 6.3, Pharsight, Inc. Mountain View, CA). The half-life during the terminal phase was calculated from the elimination rate constant (λ) determined by the linear regression analysis of the log-linear part of the plasma concentration curve. The LP-925219 AUC0–t was calculated using linear up/log down trapezoidal method up to the last measured concentration at time t (Ct). AUC0–∞ was calculated as AUC0–t + Ct/λ. Clearance (CL) was calculated by dose/AUC0–∞. Other pharmacokinetic parameters included plasma peak concentration (Cmax), the time of Cmax (Tmax) and volume of distribution at steady state (Vss). Oral bioavailability (%F) was calculated by the equation: %F = (AUC0–∞ PO/AUC0–∞ IV) × (Dose IV/Dose PO).

[2] = target: dog SGLT2 (Canis lupus familiaris, UniProt Q5U9C9); test: 14C-AMG uptake assay, cells expressing dog SGLT2; type: cell-based; settings: mean ± SD
Excerpt: (§1) Methods for generating cell lines expressing mouse, rat, and dog SGLT1 and SGLT2 are published (Powell et al. [2013b], [2014]). Full-length coding sequence of human SGLT1 (NP_000334) and human SGLT2 (NP_003032.1) with an HA-tag at the N-terminus were cloned into the mammalian expression vector pIRESpuro2 (Clontech, Mountain View, CA). HEK293 cells (ATCC, Manassas, VA) were transfected with the pIRESpuro2 vector containing human SGLT1 or SGLT2 and bulk stable cell lines were selected in the presence of 0.5 μg/mL of puromycin.
(§2) Cell lines expressing SGLT1 or SGLT2 were plated into poly-D-lysine-coated 384-well plates, and culture overnight in cell growth medium. Cells were washed, and then incubated in uptake buffer ([…], […] KCl, […] CaCl2, […] MgCl2, […] HEPES/Tris, 1 mg/mL of bovine serum albumin, pH7.4) containing [^14C]α-methylglucopyranoside (^14C-AMG), a nonmetabolizable glucose analog specific for sodium-dependent glucose transporters (Wright and Turk [2004]). The inhibition of SGLT1 or SGLT2 was determined by measuring SGLT1/2-mediated ^14C-AMG uptake in the presence of increasing compound concentrations of LP-925219. […] Standard sigmoidal dose–response model curves were fitted, and the IC50 value was computed as the LP-925219 concentration that inhibited the ^14C-AMG uptake by 50% between baseline and maximum uptake.

[3] = target: T1, human SGLT2 (Homo sapiens, UniProt P31639); test: 14C-AMG uptake assay, HEK293 cells expressing human SGLT2; type: cell-based; parameters: expressed in transfected cells; settings: mean ± SD
T1 sequence (P31639 1-672): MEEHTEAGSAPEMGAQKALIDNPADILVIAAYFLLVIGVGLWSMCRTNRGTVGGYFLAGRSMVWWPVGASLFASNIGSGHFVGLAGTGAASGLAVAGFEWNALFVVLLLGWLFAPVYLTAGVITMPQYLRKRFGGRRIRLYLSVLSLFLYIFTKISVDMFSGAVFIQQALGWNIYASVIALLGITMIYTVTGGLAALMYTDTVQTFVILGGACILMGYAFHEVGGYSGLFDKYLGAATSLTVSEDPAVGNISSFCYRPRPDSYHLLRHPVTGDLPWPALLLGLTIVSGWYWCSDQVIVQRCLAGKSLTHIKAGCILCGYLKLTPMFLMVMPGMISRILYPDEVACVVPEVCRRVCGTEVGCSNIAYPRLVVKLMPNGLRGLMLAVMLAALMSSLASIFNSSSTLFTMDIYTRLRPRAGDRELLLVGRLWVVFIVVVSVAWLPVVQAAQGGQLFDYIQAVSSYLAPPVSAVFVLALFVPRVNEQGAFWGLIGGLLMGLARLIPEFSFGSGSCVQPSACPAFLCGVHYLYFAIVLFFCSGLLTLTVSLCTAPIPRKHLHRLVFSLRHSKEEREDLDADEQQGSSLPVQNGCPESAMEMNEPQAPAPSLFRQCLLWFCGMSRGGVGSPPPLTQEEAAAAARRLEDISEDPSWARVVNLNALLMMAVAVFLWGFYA
Excerpt: as §1, §2

[4] = male, C57BL/6J, plasma, 1 mg/kg intravenous
[5] = male, C57BL/6J, plasma, 10 mg/kg oral

Sequence of dog SGLT2 (Q5U9C9 entry or part of it): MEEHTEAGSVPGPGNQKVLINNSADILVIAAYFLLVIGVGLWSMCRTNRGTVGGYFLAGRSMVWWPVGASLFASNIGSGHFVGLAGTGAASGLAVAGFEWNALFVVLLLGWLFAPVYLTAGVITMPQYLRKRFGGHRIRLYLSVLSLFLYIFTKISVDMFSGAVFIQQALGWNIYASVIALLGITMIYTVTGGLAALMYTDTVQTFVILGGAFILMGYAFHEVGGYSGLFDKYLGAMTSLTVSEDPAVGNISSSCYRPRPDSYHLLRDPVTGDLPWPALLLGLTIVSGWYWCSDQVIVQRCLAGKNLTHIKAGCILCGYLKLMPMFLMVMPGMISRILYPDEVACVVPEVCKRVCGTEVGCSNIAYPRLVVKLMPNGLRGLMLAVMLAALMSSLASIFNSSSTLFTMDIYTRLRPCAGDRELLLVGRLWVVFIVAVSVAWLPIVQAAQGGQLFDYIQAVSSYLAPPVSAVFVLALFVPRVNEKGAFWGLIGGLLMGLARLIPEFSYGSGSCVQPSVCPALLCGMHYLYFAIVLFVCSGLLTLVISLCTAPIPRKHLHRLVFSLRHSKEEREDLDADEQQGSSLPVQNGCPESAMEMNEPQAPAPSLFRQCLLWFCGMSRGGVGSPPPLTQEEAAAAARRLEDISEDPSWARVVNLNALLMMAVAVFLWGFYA

COc1ccc(Cc2cc([C@@H]3O[C@H](SC)[C@@H](O)[C@H](O)[C@H]3O)ccc2Cl)cc1 [LP-925219]
AUC(0-inf) [1, 4]: 1.41 ± 0.04 µM·h | AUC(0-t) [1, 4]: 1.214 ± 0.012 µM·h | Cmax [1, 4]: 1440 ± 97 nM | clearance [1, 4]: 29 ± 1 mL/min/kg | half-life [1, 4]: 2.8 ± 0.7 h | Vd ([1]; male, C57BL/6J, plasma, 1 mg/kg intravenous, read-out: Vss): 4.4 ± 0.6 L/kg | AUC(0-t) [1, 5]: 11.2 µM·h | Cmax [1, 5]: 3160 ± 802 nM | Tmax [1, 5]: 0.3 h | half-life [1, 5]: 7 ± 0.9 h | bioavailability ([1]; male, C57BL/6J, plasma, 10 mg/kg oral vs 1 mg/kg intravenous, read-out: %F): 87 ± 21% | concentration at 6 h ([1]; male, C57BL/6J, plasma, 10 mg/kg oral, 6 h, read-out: plasma level at 6 h postdosing): 617 ± 107 nM | concentration at 24 h ([1]; male, C57BL/6J, plasma, 10 mg/kg oral, 24 h, read-out: plasma level at 24 h post dosing): 100 ± 43 nM | bioavailability ([1]; male, C57BL/6J, plasma, 10 mg/kg oral, read-out: bioavailability (%F)): 87% | AUC0-∞ ([1]; 10 mg/kg oral): 12,214 ± 3037 nmo/L*h | plasma level at 24 h post dosing ([1]; 10 mg/kg oral, 24 h, 10 mg/kg): 100 nM | IC50 [2]: 1 ± 0.3 nM | IC50 [3]: 2.1 ± 0.5 nM
